Patent publication US20230257373A1, “QUORUM SENSING INHIBITORS AND METHODS OF USE” (priority 2020, published 2023)
Read-outs that look alike come from different tables or passages of the source.

Columns and labels:
LuxR = LuxR (Vibrio harveyi, UniProt P21308); test: E. coli bioassay expressing LuxR (IPTG-inducible plasmid); format: cell-based, V. campbellii; design: expressed in transfected cells; host or cells: E. coli DH10B with pMMB67EH-kanR derivative and pJV064; conditions: 25 μM PTSP
Source text: (§1) We hypothesized that there were several possible reasons for the observed difference in PTSP inhibition in the various Vibrio species, including but not limited to: 1) differences in LuxR-inhibitor interaction(s), 2) differences in diffusion of the inhibitor across the membranes, or 3) stability of the inhibitor in the cell and/or cell culture. To examine PTSP activity in a common strain background, we cloned the luxR gene from each Vibrio species into a plasmid under control of an IPTG-inducible promoter and assayed the effect of PTSP against these proteins in the E. coli bioassay. […] We conclude that the differences in PTSP activity in Vibrio species is due to differences in interaction between PTSP and the LuxR-type protein in each Vibrio.
(§2) In E. coli assays expressing the five different LuxR-type proteins (luxR, smcR, opaR, vcpR, hapR), slight changes to the protocol were implemented. The luxR genes were cloned under control of the IPTG-inducible Ptac promoter in plasmid pMMB67EH-kanR. […] Strains expressing hapR or smcR required 50 μM IPTG to observe activation of the GFP reporter; IPTG was not added to strains expressing luxR, vcpR, or opaR.

V. campbellii LuxR = biological target: T1, V. campbellii LuxR (Vibrio harveyi, UniProt P21308); test: qRT-PCR and western blots in wild-type V. campbellii; format: cell-based
T1 construct: expressed in transfected cells; host or cells: E. coli DH10B with pKM699 and reporter pJV064
Source text: The Qstatin-treated regulon overlapped with the SmcR regulon by more than 50%, with similar gene expression fold-changes. […] This is important to note because LuxR and HapR proteins are known to autorepress their own expression. To test the effects of adding inhibitors to V. campbellii LuxR, we added 10A, 10B, and 10C to wild-type V. campbellii and used qRT-PCR and western blots to examine the effects on luxR transcript and protein levels. We also examined the transcript levels for luxC and 05222 genes that are directly activated or repressed by LuxR, respectively.
All PCR reactions were performed using Phusion HF polymerase (NEB). T4 polynucleotide kinase (T4 PNK) used in EMSAs and all other enzymes were purchased from NEB and used according to manufacturer's instructions. Site-directed mutagenesis for construction of plasmids expressing mutant proteins was carried out using the Agilent QuikChange II XL Site-Directed Mutagenesis Kit. All oligonucleotides were purchased from Integrated DNA Technologies (IDT).ALL plasmid constructs were confirmed by DNA sequencing (Eurofins). Cloning details for plasmids are available upon request. Western blot analysis was performed as previously described (van Kessel et al., 2013b), except that new anti-LuxR antibodies were generated through Cocalico against purified LuxR protein. In addition, the western blots were probed with anti-RpoB (Neoclone).
Then cells were induced with 50 μM IPTG and grown under the same conditions until cells reached an OD600 of approximately 1, at which 5 mL of cells were collected by centrifugation and frozen in liquid N2. RNA was extracted using a Trizol/chloroform extraction protocol previously described (Rutherford et al., 2011). Quantitative real-time PCR (qRT-PCR) was performed as previously described (Chaparian et al., 2016). Samples were normalized to the internal standard hfq gene. The ΔΔCT values were used to analyze data from three independent biological replicates. Symbols on graphs represent the mean values and error bars represent the standard deviations. All statistical analysis was performed with functions from GraphPad Prism version 8.

[1] = test system: PluxC-gfp reporter in V. campbellii; test: PluxC-gfp reporter in V. campbellii strains; conditions: Vibrio campbellii
[2] = test system: PluxC-gfp reporter in V. coralliilyticus; test: PluxC-gfp reporter in V. coralliilyticus strains
OpaR = test: E. coli bioassay expressing OpaR (IPTG-inducible plasmid); format: cell-based, V. parahaemolyticus; conditions: 25 μM PTSP
Source text: as §1, §2

[3] = test system: PluxC-gfp reporter in V. parahaemolyticus; test: PluxC-gfp reporter in V. parahaemolyticus strains; conditions: Vibrio parahaemolyticus
V. cholerae = test: Quorum sensing reporter in V. cholerae; conditions: even at high concentrations
SmcR = SmcR (Vibrio vulnificus, UniProt Q9L8G8); test: E. coli bioassay expressing SmcR (IPTG-inducible plasmid); format: cell-based, V. vulnificus
Source text: as §1
(§3) We therefore sought to determine if any of the four residues that differ between HapR and LuxR/SmcR in the putative ligand binding pocket are sufficient to render SmcR insensitive to PTSP. First, we introduced substitutions in SmcR to mimic the amino acid sequence of HapR: F75Y, I96L, […], and C170F. […] Next, we introduced single substitutions in HapR to mimic the amino acid present in SmcR: Y76F, L97I, I141V, and F171C.
as §2

Vibrio strains = test: luxCDABE reporter across five Vibrio species; conditions: each Vibrio strain except V. cholerae
[4] = test system: PluxC-gfp reporter in V. vulnificus; test: PluxC-gfp reporter in V. vulnificus strains; conditions: Vibrio vulnificus
HapR = test: E. coli bioassay expressing HapR (IPTG-inducible plasmid); format: cell-based, V. cholerae
Source text: as §1, §3, §2

**Q.** Which results are given for O=S(=O)(c1cccs1)n1ccc(-c2ccccc2)n1 [Compound 10B]?
**A.** Inhibition of LuxR in E. coli bioassay (LuxR): inhibited; luxC transcripts (V. campbellii LuxR; qRT-PCR, to levels in a ΔluxR strain): significantly decreased; 05222 transcripts (V. campbellii LuxR; qRT-PCR, wild-type cultures): significantly increased; LuxR protein level (V. campbellii LuxR; western blot, wild-type V. campbellii): visible increase; IC50 ([1]; ATCC25920, read-out: Inhibition (IC50) of the PluxC-gfp reporter, Vcamp ATCC 25920): 30 nM; IC50 ([1]; read-out: IC50, V. campbellii BB120, luxCDABE): 140 nM; IC50 ([1]; read-out: IC50, V. campbellii, b235): 350 nM; IC50 ([1]; read-out: Inhibition (IC50) of the PluxC-gfp reporter, Vcamp HY01): 100 nM; IC50 ([2]; read-out: IC50, V. coralliilyticus OCN008, luxCDABE reporter plasmid): 2200 nM; IC50 ([2]; read-out: Inhibition (IC50) of the PluxC-gfp reporter, Vcoral OCN 008): 1430 nM; IC50 ([2]; read-out: Inhibition (IC50) of the PluxC-gfp reporter, Vcoral OCN 014): 2370 nM; Inhibition of OpaR in E. coli bioassay (OpaR): inhibited; IC50 ([3]; read-out: IC50, V. parahaemolyticus RIMD2210633, luxCDABE reporter plasmid): 280 nM; IC50 ([3]; read-out: Inhibition (IC50) of the PluxC-gfp reporter, Vpara 12-297/B): 320 nM; IC50 ([3]; read-out: Inhibition (IC50) of the PluxC-gfp reporter, Vpara D4): 270 nM; IC50 ([3]; read-out: Inhibition (IC50) of the PluxC-gfp reporter, Vpara RIMD 2210633): 170 nM; Inhibition in V. cholerae (in words) (V. cholerae): not active; Inhibition of SmcR in E. coli bioassay (SmcR; 25 μM PTSP): inhibited; Inhibition of SmcR C170F (SmcR; SmcR substitution C170F): abolished PTSP inhibition; Inhibition of SmcR F75Y (SmcR; SmcR substitution F75Y): abolished PTSP inhibition; Inhibition of SmcR I96L (SmcR; SmcR substitution I96L): not significantly different from wild-type SmcR; Inhibition of SmcR V1401 (SmcR; SmcR substitution V1401): not significantly different from wild-type SmcR; IC50 values lower than Qstatin (Vibrio strains): ~10 fold; IC50 ([4]; ATCC27562, read-out: IC50, V. vulnificus ATCC 27562, luxCDABE reporter plasmid): 40 nM; IC50 ([4]; ATCC27562, read-out: Inhibition (IC50) of the PluxC-gfp reporter, Vvul ATCC 27562): 1.96 nM; IC50 ([4]; read-out: IC50, V. vulnificus, b235): 2 nM; IC50 ([4]; read-out: IC50 values for all three V. vulnificus clinical isolates, three clinical isolates): 2 to 30 nM; IC50 ([4]; read-out: Inhibition (IC50) of the PluxC-gfp reporter, Vvul CMPC6): 29.5 nM; IC50 ([4]; read-out: Inhibition (IC50) of the PluxC-gfp reporter, Vvul YJ016): 3.78 nM; Inhibition of HapR in E. coli bioassay (HapR; 25 μM PTSP): unresponsive; Inhibition of HapR single substitutions (HapR; HapR Y76F, L97I, I141V, F171C, each alone): none of these substitutions alone were sufficient to make HapR sensitive; Inhibition of HapR Y76F and F171C combination (HapR; combination of Y76F and F171C): did not result in PTSP inhibition
